Ten molecules from US10004732B2 (Novartis AG, priority 2014, dated 2018) can be followed below.

Each structure is given as a SMILES string.

For data set [1], the target named is T1, PI 3-kinase alpha (Homo sapiens, UniProt P42336). Nature of the data set: Kinase Glo Luminescent Kinase Assay (Kglo), assay A. Format: biochemical. The settings on record: read-out: Assay A PI3Kα IC50.
Target sequence in this assay (P42336 whole entry): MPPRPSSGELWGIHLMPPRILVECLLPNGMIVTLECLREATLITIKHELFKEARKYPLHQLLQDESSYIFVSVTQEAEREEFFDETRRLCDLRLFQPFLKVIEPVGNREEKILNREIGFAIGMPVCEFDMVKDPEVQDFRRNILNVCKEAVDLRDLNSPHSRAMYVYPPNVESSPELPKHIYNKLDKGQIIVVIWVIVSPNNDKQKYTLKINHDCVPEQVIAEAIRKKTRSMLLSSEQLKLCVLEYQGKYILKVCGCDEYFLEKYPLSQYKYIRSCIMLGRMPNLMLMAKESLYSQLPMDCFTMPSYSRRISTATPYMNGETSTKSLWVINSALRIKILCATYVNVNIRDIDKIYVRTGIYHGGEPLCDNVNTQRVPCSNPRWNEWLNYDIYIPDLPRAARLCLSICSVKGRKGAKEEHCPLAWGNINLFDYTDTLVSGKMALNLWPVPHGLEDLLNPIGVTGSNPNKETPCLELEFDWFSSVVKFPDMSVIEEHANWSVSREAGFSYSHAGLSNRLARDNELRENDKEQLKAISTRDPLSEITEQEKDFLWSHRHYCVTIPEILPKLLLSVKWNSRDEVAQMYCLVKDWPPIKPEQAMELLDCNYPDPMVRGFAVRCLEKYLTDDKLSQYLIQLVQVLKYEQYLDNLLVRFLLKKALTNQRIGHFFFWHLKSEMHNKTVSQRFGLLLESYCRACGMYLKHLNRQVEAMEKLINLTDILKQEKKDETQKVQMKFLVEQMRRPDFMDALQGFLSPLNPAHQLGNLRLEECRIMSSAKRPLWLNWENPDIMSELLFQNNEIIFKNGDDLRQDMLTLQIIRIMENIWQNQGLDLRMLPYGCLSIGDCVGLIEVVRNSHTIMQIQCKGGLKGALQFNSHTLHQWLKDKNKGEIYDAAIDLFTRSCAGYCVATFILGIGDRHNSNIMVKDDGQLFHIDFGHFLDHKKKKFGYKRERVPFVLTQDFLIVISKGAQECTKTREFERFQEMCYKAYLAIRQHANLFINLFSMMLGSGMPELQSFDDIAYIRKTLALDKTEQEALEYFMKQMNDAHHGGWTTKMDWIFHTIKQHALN
The nature of data set [2]: Microsomal clearance assay (M). The note with it: intrinsic clearance in rat liver microsomes.
Experimental: The experiments were performed in 96-well glass plates at 37° C. on an automated Tecan EVO platform. Test compounds at a concentration of 10 mM in pure DMSO were diluted 1:1000 in water to 10 μM. […] Reactions were initiated by the addition of 150 μL of a cofactor solution containing 2 mM NADPH.
The target of data set [3] is Vps34 (Homo sapiens, UniProt Q8NEB9). In words: Kinase Glo Luminescent Kinase Assay (Kglo), assay C. Format: biochemical. The settings on record: read-out: Assay C VPS34 IC50.
For data set [4], the target named is T1, PI 3-kinase alpha. In words: Cellular assay H1, p-Akt (S473) in Rat-1 cells, Surefire format. Format: cell-based. The settings on record: non-asterisked data: version H1 (Surefire format), Rat-1 cells; read-out: Assay H PI3Kα IC50.
Target sequence in this assay (P42336 whole entry): as above
Target sequence in this assay (Q63787 whole entry partner): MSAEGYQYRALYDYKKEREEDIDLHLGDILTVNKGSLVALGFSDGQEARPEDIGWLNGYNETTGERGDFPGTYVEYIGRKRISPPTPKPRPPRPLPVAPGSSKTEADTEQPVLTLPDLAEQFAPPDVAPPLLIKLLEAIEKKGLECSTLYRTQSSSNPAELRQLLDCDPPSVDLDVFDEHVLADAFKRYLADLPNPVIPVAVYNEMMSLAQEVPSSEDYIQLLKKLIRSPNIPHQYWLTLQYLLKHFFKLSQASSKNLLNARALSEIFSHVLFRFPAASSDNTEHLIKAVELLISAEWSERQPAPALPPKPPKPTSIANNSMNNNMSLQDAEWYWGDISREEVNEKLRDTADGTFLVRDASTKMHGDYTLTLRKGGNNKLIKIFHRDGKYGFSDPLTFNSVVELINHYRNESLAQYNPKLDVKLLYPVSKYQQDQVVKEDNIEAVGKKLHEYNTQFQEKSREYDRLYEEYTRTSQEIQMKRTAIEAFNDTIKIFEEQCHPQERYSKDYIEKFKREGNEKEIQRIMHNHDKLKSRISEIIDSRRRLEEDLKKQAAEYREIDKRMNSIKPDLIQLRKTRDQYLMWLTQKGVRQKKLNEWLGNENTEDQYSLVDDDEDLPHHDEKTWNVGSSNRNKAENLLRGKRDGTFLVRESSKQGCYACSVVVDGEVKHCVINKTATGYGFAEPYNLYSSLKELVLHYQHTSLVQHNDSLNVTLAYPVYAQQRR
Data set [5] has as its system IL-8-induced neutrophil shape change in human whole blood. In words: Whole blood neutrophil shape change assay (L). The note with it: Homo sapiens, Neutrophil, IL-8, human whole blood, read-out: Assay L WBSC IC50. The class given is cell-based.
Data set [6] addresses T2, PI 3-kinase delta (Homo sapiens, UniProt O00329). Nature of the data set: TR-FRET Adapta assay, assay F.
For data set [7], the target named is T3, PI 3-kinase beta (Homo sapiens, UniProt P42338). In words: Cellular assay I1, p-Akt (S473) in Rat-1 cells, Surefire format. Format: cell-based. The note with it: non-asterisked data: version I1 (Surefire format), Rat-1 cells; read-out: Assay I PI3Kβ IC50.
Target sequence in this assay (P42338 whole entry): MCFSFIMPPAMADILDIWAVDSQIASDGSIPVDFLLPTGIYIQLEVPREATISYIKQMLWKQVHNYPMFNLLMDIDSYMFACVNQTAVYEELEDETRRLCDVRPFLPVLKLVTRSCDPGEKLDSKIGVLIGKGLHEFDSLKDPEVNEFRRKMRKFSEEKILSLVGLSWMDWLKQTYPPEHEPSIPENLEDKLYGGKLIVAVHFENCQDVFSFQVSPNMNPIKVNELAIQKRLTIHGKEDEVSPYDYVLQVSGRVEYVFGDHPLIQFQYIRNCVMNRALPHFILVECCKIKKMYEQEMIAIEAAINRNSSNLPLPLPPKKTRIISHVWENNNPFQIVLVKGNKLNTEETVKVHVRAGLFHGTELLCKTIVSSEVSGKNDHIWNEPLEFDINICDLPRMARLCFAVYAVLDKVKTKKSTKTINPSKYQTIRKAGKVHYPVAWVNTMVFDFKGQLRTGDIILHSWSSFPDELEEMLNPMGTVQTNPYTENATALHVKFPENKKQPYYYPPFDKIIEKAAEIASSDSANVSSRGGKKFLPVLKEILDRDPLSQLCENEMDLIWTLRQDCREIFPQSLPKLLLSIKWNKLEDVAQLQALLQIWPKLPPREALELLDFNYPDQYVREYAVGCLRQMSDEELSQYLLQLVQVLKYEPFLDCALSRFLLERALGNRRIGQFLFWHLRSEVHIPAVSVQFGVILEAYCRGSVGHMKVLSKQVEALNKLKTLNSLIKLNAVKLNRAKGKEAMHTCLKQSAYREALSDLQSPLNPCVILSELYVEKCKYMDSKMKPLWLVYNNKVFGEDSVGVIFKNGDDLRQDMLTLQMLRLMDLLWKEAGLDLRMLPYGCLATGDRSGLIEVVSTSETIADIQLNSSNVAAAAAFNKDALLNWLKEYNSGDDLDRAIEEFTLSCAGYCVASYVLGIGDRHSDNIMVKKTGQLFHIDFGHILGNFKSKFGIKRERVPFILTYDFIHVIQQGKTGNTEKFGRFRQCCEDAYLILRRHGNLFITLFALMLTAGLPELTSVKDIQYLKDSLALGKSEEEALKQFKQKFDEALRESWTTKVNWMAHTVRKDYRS
Target sequence in this assay (Q63787 whole entry partner): as the sequence (Q63787 whole entry partner) above
In data set [8] the target is PI 4-kinase beta (Homo sapiens, UniProt Q9UBF8). Nature of the data set: Kinase Glo Luminescent Kinase Assay (Kglo), assay D. The class given is biochemical. The note with it: read-out: Assay D PI4Kβ IC50.
Data set [9] has as its target mTOR (Homo sapiens, UniProt P42345). Nature of the data set: Lanthascreen kinase binding assay, assay G. The note with it: read-out: Assay G mTOR IC50.
Experimental: Lanthascreen™ Kinase Binding Assay for mTOR (G)
Binding of an inhibitor to the kinase competes for binding with the tracer, resulting in a loss of FRET.
50 nL of compound dilutions were dispensed onto white 384-well small volume polystyrene plate.
For data set [10], the target named is T4, PI 3-kinase gamma (Homo sapiens, UniProt P48736). Nature of the data set: Cellular U937 AKT assay K1 (MSD). Format: cell-based. The note with it: U937 cells, K1 format; read-out: Assay K1 PI3Kγ IC50.
The target of data set [11] is T4, PI 3-kinase gamma. Nature of the data set: TR-FRET Adapta assay, assay E. The class given is biochemical. The settings on record: read-out: Assay E PI3Kγ IC50.
Data set [12] has as its target T3, PI 3-kinase beta. In words: Kinase Glo Luminescent Kinase Assay (Kglo), assay B. The class given is biochemical. The settings on record: read-out: Assay B PI3Kβ IC50.
Target sequence in this assay (P42338 whole entry): as the sequence (P42338 whole entry) above
Target sequence in this assay (P27986 461-568 partner): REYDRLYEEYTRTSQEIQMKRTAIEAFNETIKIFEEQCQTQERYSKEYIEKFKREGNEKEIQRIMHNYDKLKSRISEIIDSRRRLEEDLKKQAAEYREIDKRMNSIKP
For data set [13], the target named is T2, PI 3-kinase delta. In words: Cellular assay J1, p-Akt (S473) in Rat-1 cells, Surefire format. The note with it: non-asterisked data: version J1 (Surefire format), Rat-1 cells; read-out: Assay J PI3Kδ IC50. The class given is cell-based.
The target of data set [14] is T4, PI 3-kinase gamma. Nature of the data set: Cellular U937 AKT assay K2 (HTRF). Format: cell-based. The note with it: U937 cells, K2 format; read-out: Assay K2 PI3Kγ IC50.

T4 sequence (P48736 whole entry): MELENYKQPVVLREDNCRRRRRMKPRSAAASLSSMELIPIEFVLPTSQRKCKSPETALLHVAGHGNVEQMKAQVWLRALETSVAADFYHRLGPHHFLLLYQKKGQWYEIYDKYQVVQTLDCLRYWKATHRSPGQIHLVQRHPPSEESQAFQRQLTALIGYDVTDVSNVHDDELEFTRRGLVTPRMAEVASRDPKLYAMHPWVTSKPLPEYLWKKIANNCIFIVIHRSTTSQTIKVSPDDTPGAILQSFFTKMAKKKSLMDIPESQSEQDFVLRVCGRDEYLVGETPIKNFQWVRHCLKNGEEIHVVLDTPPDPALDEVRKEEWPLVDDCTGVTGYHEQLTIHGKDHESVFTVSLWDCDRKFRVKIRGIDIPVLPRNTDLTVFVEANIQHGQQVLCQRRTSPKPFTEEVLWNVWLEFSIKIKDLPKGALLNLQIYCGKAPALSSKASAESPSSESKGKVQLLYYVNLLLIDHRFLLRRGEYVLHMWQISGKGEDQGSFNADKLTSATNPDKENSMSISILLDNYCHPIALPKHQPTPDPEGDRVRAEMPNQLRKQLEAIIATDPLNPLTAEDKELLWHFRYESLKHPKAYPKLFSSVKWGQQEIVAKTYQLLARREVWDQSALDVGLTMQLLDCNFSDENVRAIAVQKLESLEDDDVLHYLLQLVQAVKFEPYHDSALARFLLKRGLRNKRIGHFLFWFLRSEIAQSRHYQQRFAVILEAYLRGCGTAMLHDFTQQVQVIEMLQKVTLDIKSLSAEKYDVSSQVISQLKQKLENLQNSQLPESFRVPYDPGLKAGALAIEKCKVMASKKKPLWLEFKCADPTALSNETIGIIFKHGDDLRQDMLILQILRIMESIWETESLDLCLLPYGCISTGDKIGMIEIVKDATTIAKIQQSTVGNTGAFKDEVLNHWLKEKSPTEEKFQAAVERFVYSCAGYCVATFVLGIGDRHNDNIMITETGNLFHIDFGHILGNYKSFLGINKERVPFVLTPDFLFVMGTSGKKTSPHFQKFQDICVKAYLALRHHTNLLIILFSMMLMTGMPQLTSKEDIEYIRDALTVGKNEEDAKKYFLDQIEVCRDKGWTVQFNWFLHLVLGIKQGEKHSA
Sequence of PI 4-kinase beta (Q9UBF8 whole entry): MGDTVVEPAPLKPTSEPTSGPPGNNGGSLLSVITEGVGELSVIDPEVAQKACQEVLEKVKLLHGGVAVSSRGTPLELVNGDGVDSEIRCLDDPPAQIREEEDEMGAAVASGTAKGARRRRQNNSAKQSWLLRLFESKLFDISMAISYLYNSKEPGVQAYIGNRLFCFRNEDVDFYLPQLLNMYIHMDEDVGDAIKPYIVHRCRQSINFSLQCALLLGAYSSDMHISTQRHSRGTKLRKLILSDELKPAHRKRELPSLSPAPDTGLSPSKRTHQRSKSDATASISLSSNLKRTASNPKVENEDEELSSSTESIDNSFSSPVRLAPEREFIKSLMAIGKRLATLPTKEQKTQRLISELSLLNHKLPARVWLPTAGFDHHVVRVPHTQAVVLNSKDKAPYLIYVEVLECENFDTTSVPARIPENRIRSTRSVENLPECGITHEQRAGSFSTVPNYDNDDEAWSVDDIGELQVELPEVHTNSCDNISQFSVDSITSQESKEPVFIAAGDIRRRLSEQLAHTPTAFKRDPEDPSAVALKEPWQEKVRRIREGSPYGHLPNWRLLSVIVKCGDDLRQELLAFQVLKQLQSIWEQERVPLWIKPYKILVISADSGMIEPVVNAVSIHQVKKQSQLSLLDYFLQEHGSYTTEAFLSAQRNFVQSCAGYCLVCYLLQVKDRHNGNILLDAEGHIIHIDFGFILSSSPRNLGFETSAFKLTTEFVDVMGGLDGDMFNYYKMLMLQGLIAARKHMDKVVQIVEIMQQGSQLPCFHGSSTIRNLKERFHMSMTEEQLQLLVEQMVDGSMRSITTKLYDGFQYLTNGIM

Turning to `Cc1ccc(S(=O)(=O)NCC2(C)COC2)cc1-c1cnc(N)c(-c2cnn(C)c2)n1` [Example 5, 3-[5-Amino-6-(1-methyl-1H-pyrazol-4-yl)-pyrazin-2-yl]-4-methyl-N-(3-methyl-oxetan-3-ylmethyl)-benzenesulfonamide], the IC50 in data set [1] is 680 nM; in [3], > 10000 nM; in [4] it was > 10000 nM; in [5], 696 nM; in data set [6] (read-out: Assay F PI3Kδ IC50), 1000 nM; in data set [7], > 10000 nM. The IC50 was 6700 nM in data set [8]; > 10000 nM in [9]; 78 nM in data set [10]; 12 nM in data set [11]; 690 nM in data set [12]; 3450 nM in [13]. Moreover, the IC50 in [14] is 261 nM. Also, the “Assay M RLM CI(int)” value in data set [2] was 26 µL/min/mg.
For the molecule `Cc1ncc(-c2nc(-c3cc(S(=O)(=O)NC[C@H]4C[C@@H](O)C4)ccc3C)cnc2N)s1` [Example 20a, cis-3-[5-Amino-6-(2-methyl-thiazol-5-yl)-pyrazin-2-yl]-N-(3-hydroxy-cyclobutylmethyl)-4-methyl-benzenesulfonamide], the IC50 is 30 nM in data set [1]; > 9100 nM in [3]; 720 nM in [4]; 232 nM in [5]; 50 nM in data set [6]; 1430 nM in data set [7]. For the same molecule, the IC50 turned out to be 5280 nM in data set [8]; 1880 nM in data set [9]; 11 nM in data set [10]; 7 nM in [11]; 1060 nM in [12]; 420 nM in [13]. Moreover, the IC50 in data set [14] stood at 23 nM. For the same molecule, the “Assay M RLM CI(int)” value in [2] was 55 µL/min/mg.
In the case of `Cc1ncc(-c2nc(-c3cc(S(=O)(=O)NC[C@H]4C[C@H](O)C4)ccc3C)cnc2N)s1` [Example 20b, trans-3-[5-Amino-6-(2-methyl-thiazol-5-yl)-pyrazin-2-yl]-N-(3-hydroxy-cyclobutylmethyl)-4-methyl-benzenesulfonamide], the half-maximal inhibitory concentration (IC50) was found to be 50 nM in data set [1]; 400 nM in [3]; 660 nM in data set [4]; 106 nM in [5]; 50 nM in data set [6]; 1730 nM in data set [7]. In addition, the IC50 was determined as 4980 nM in [8]; 3310 nM in [9]; 14 nM in [10]; 11 nM in [11]; 880 nM in data set [12]; 610 nM in data set [13]. The IC50 in data set [14] was 24 nM. In addition, the “Assay M RLM CI(int)” value in data set [2] was 30 µL/min/mg.
Turning to `Cc1ccc(S(=O)(=O)NCC(C)(C)O)cc1-c1cnc(N)c(-c2cnc(C3CC3)s2)n1` [Example 21, 3-[5-Amino-6-(2-cyclopropyl-thiazol-5-yl)-pyrazin-2-yl]-N-(2-hydroxy-2-methyl-propyl)-4-methyl-benzenesulfonamide], the IC50 in data set [1] came out at 40 nM; in data set [3] it was 1400 nM; in [4], 510 nM; in data set [5], 244 nM; in data set [6] (read-out: Assay F PI3Kδ IC50), 80 nM; in [7], 590 nM. For the same molecule, the IC50 worked out at 1500 nM in data set [8]; 690 nM in data set [9]; 18 nM in data set [10]; 6 nM in [11]; 150 nM in data set [12]; 460 nM in data set [13]. The IC50 in [14] is 90 nM. For the same molecule, in data set [2], the “Assay M RLM CI(int)” value was 109 µL/min/mg.
For `Cc1ccc(S(=O)(=O)N[C@H]2CC[C@H](O)CC2)cc1-c1cnc(N)c(-c2cccnc2)n1` [Example 22, Trans-3-(5-Amino-6-pyridin-3-yl-pyrazin-2-yl)-N-(4-hydroxy-cyclohexyl)-4-methyl benzenesulfonamide], the IC50 in data set [1] is 760 nM; in data set [3], > 9100 nM; in [4] it was 6670 nM; in [5] it was 256 nM; in [6] (read-out: Assay F PI3Kδ IC50) it was 420 nM; in data set [7], > 10000 nM. In addition, the IC50 in data set [8] was found to be 7080 nM; in data set [9] it was 8020 nM; in [10] it was 164 nM; in data set [11], 44 nM; in data set [12], 5710 nM; in [13], 4690 nM. In addition, the IC50 in data set [14] worked out at 100 nM. In addition, the “Assay M RLM CI(int)” value in [2] is 47 µL/min/mg.
On to `Cc1ncn(-c2nc(-c3cc(S(=O)(=O)NCC(C)(C)O)ccc3C)cnc2N)n1` [Example 25, 3-[5-Amino-6-(3-methyl-[1,2,4]triazol-1-yl)-pyrazin-2-yl]-N-(2-hydroxy-2-methyl-propyl)-4-methyl-benzenesulfonamide], for which the IC50 in data set [1] is 620 nM; in [3], > 10000 nM; in data set [4], 2190 nM; in [5], 742 nM; in [6] (read-out: Assay F PI3Kδ IC50) it was 1030 nM; in data set [7], 1700 nM. Besides, the half-maximal inhibitory concentration (IC50) is > 10000 nM in data set [8]; 210 nM in data set [9]; 153 nM in data set [10]; 79 nM in data set [11]; 3150 nM in data set [12]; 1390 nM in data set [13]. In addition, in data set [14], the IC50 is 2340 nM. Moreover, the “Assay M RLM CI(int)” value in data set [2] turned out to be 71 µL/min/mg.
As to `Cc1ccc(S(=O)(=O)NCC2(C)COC2)cc1-c1cnc(N)c(-n2cncn2)n1` [Example 29, 3-(5-Amino-6-[1,2,4]triazol-1-yl-pyrazin-2-yl)-4-methyl-N-(3-methyl-oxetan-3-ylmethyl)-benzenesulfonamide], the IC50 in data set [1] is 1300 nM; in data set [3] it was > 9100 nM; in [4], 4630 nM; in [5], 956 nM; in [6] (read-out: Assay F PI3Kδ IC50) it was 910 nM; in data set [7], 8080 nM. Also, the concentration for half-maximal inhibition (IC50) in data set [8] was 5200 nM; in data set [9], > 9100 nM; in data set [10] it was 206 nM; in data set [11], 9 nM; in data set [12], 6800 nM; in data set [13] it was 6610 nM. Further, the half-inhibitory concentration (IC50) in data set [14] was found to be 314 nM. Further, in data set [2], the “Assay M RLM CI(int)” value was 62 µL/min/mg.
In the case of `Cc1ccc(S(=O)(=O)NCCC(C)(C)O)cc1-c1cnc(N)c(-c2cscn2)n1` [Example 108, 3-(5-Amino-6-(thiazol-4-yl)pyrazin-2-yl)-N-(3-hydroxy-3-methylbutyl)-4-methylbenzenesulfonamide], the IC50 in [1] came out at 310 nM; in data set [4] it was 5780 nM; in data set [5], 5560 nM; in data set [6] (read-out: Assay F PI3Kδ IC50), 330 nM; in data set [7] it was 3010 nM; in data set [8], 640 nM. The IC50 in data set [9] is > 10000 nM; in data set [10], 58 nM; in [11] it was 38 nM; in [12], 260 nM; in data set [13] it was 410 nM; in data set [14], 163 nM. The “Assay M RLM CI(int)” value in [2] came out at 112 µL/min/mg.
On to `CCONS(=O)(=O)c1ccc(C)c(-c2cnc(N)c(-n3cncn3)n2)c1` [Example 112, 3-(5-Amino-6-(1H-1,2,4-triazol-1-yl)pyrazin-2-yl)-N-ethoxy-4-methylbenzenesulfonamide], for which the IC50 was 860 nM in data set [1]; > 10000 nM in [3]; 790 nM in [4]; 586 nM in data set [5]; 500 nM in [6] (read-out: Assay F PI3Kδ IC50); 1140 nM in [7]. For the same molecule, the IC50 stood at 3150 nM in data set [8]; 6300 nM in data set [9]; 95 nM in data set [10]; 19 nM in data set [11]; 3300 nM in data set [12]; 310 nM in [13]. The IC50 in data set [14] is 172 nM. In addition, the “Assay M RLM CI(int)” value in [2] was 62 µL/min/mg.
In the case of `Cc1ncc(-c2nc(-c3cc(S(=O)(=O)NCCCO)c(F)cc3C)cnc2N)s1` [Example 113, 5-(5-Amino-6-(2-methylthiazol-5-yl)pyrazin-2-yl)-2-fluoro-N-(3-hydroxypropyl)-4-methylbenzenesulfonamide], the IC50 came to 50 nM in [1]; 470 nM in data set [3]; 1080 nM in data set [4]; 143 nM in data set [5]; 320 nM in data set [6] (read-out: Assay F PI3Kδ IC50); 3570 nM in data set [7]. Also, the IC50 in data set [8] stood at 1480 nM; in data set [9], 3450 nM; in data set [10], 55 nM; in data set [11], 8 nM; in data set [12], 440 nM; in data set [13], 1080 nM. In addition, in [14], the IC50 worked out at 24 nM. Moreover, the “Assay M RLM CI(int)” value in [2] came out at 39 µL/min/mg.
